# Measured values published in US9326973B2, “Hepatitis C virus inhibitors” (priority 2012, dated 2016).
# Test system: HCV replicon, genotype-1a variant with glutamine 30 changed to glutamate in the NS5A protein
# Assay: microbe, parasite or virus in culture
# Format: cell-based, HCV genotype 1a
# Conditions: HCV replicon genotype 1a Q30E (Q→E) variant; test compound titrated with an NS5A-targeting compound (BMS-790052 fixed at 200 nM); ranking of synergist activity
# Source text: The NS5A synergistic inhibitory effect of test compounds can be determined using various amounts of an NS5A-targeting compound with titration of a second compound of interest. […] In one embodiment, the HCV genotype strain can be genotype 1a containing a change at amino acid 30 of the NS5A protein consisting of glutamine to glutamate. The test compound can be chosen from compounds listed above or from others present in the literature.
row,SMILES,Fold-Synergistic 1a (Q30E) [fold]
1,CC(C)(C)OC(=O)N[C@]1(C(=O)N[C@H](c2nc(-c3ccc(-c4ccc(-c5c[nH]c([C@@H](NC(=O)[C@@]6(NC(=O)OC(C)(C)C)C[C@@H]6c6ccccc6)C(C)(C)C)n5)cc4)cc3)c[nH]2)C(C)(C)C)C[C@@H]1c1ccccc1 [Compound W-2],>100
2,CC(C)(C)[C@H](NC(=O)C(=O)N1CCC(F)CC1)c1nc(-c2ccc(-c3ccc(-c4c[nH]c([C@@H](NC(=O)C(=O)N5CCC(F)CC5)C(C)(C)C)n4)cc3)cc2)c[nH]1 [Compound W-26],>100
3,CC(C)(Br)C(=O)N[C@H](c1nc(-c2ccc(-c3ccc(-c4c[nH]c([C@@H](NC(=O)C(C)(C)Br)C(C)(C)C)n4)cc3)cc2)c[nH]1)C(C)(C)C [Compound W-149],>100
4,O=C(NC(c1nc(-c2ccc(-c3ccc(-c4c[nH]c(C(NC(=O)C5CCC(F)(F)CC5)C5(C(F)(F)F)CC5)n4)cc3)cc2)c[nH]1)C1(C(F)(F)F)CC1)C1CCC(F)(F)CC1 (centres unmarked) [Compound N-109B],>100
5,CC(C)[C@H](NC(=O)c1cc(Cl)ccc1F)c1nc(-c2ccc(-c3ccc(-c4c[nH]c([C@@H](NC(=O)c5cc(Cl)ccc5F)C(C)C)n4)cc3F)cc2)c[nH]1 [Compound N-99],>100
6,CN(CC(F)(F)F)C(C)(C)C(=O)N[C@H](c1nc(-c2ccc(-c3ccc(-c4c[nH]c([C@@H](NC(=O)C(C)(C)N(C)CC(F)(F)F)C(C)(C)C)n4)cc3)cc2)c[nH]1)C(C)(C)C [Compound L-62],>100
7,CCN(CCC#N)C(=O)C(C)(C)C(=O)N[C@H](c1nc(-c2ccc(-c3ccc(-c4c[nH]c([C@@H](NC(=O)C(C)(C)C(=O)N(CC)CCC#N)C(C)(C)C)n4)cc3)cc2)c[nH]1)C(C)(C)C [Compound W-158],>100
8,COC(=O)CCC(=O)N1CCC[C@H]1c1ncc(-c2ccc(-c3ccc(-c4cnc([C@@H]5CCCN5C(=O)CCC(=O)OC)[nH]4)cc3)cc2)[nH]1 [Compound S-173],<10
9,CC(C)(C)[C@H](NC(=O)C(C)(C)n1cnc(C(F)(F)F)c1)c1nc(-c2ccc(-c3ccc(-c4c[nH]c([C@@H](NC(=O)C(C)(C)n5cnc(C(F)(F)F)c5)C(C)(C)C)n4)cc3)cc2)c[nH]1 [Compound W-150],>100
10,Cc1cc(-c2ccc(-c3c[nH]c([C@@H](NC(=O)C(C)(C)C)C(C)(C)C)n3)cc2)ccc1-c1c[nH]c([C@@H](NC(=O)C(C)(C)C)C(C)(C)C)n1 [Compound N-86],>100
11,CC1([C@H](NC(=O)C2(N3CCC(F)(F)CC3)COC2)c2nc(-c3ccc(-c4ccc(-c5c[nH]c([C@@H](NC(=O)C6(N7CCC(F)(F)CC7)COC6)C6(C)CC6)n5)cc4)cc3)c[nH]2)CC1 [Compound W-62],>100
12,C[C@H]1CC[C@@H](C(=O)N[C@H](c2nc(-c3ccc(-c4ccc(-c5c[nH]c([C@@H](NC(=O)[C@@H]6CC[C@H](C)N6C(=O)OC(C)(C)C)C6(C)CC6)n5)cc4)cc3)c[nH]2)C2(C)CC2)N1C(=O)OC(C)(C)C [Compound W-72],>100
13,O=C(c1ccc(-c2ccccc2)o1)N1CCC[C@H]1c1ncc(-c2ccc(-c3ccc(-c4cnc([C@@H]5CCCN5C(=O)c5ccc(-c6ccccc6)o5)[nH]4)cc3)cc2)[nH]1 [Compound S-137],>10
14,C[C@H]1CCN(C(=O)C2CCC(F)(F)CC2)[C@@H]1c1nc(-c2ccc(-c3ccc(-c4c[nH]c([C@@H]5[C@@H](C)CCN5C(=O)C5CCC(F)(F)CC5)n4)cc3)cc2)c[nH]1 [Compound W-188],>10
15,CC(C)(C(=O)N[C@H](c1nc(-c2ccc(-c3ccc(-c4c[nH]c([C@@H](NC(=O)C(C)(C)C(=O)N5CCC(O)CC5)C(C)(C)C)n4)cc3)cc2)c[nH]1)C(C)(C)C)C(=O)N1CCC(O)CC1 [Compound W-136],>10
16,O=C(Cc1ccccn1)N1CCC[C@H]1c1ncc(-c2ccc(-c3ccc(-c4cnc([C@@H]5CCCN5C(=O)Cc5ccccn5)[nH]4)cc3)cc2)[nH]1 [Compound S-149],<10
17,C[C@@H]1CN(C(C)(C)C(=O)N[C@H](c2nc(-c3ccc(-c4ccc(-c5c[nH]c([C@@H](NC(=O)C(C)(C)N6C[C@@H](C)O[C@@H](C)C6)C(C)(C)C)n5)cc4)cc3)c[nH]2)C(C)(C)C)C[C@H](C)O1 [Compound W-160],>10
18,O=C(c1csc(-c2ccccc2)n1)N1CCC[C@H]1c1ncc(-c2ccc(-c3ccc(-c4cnc([C@@H]5CCCN5C(=O)c5csc(-c6ccccc6)n5)[nH]4)cc3)cc2)[nH]1 [Compound S-138],>100
19,CC(C)(C)OC(=O)N1C[C@@H](F)C[C@H]1C(=O)N[C@H](c1nc(-c2ccc(-c3ccc(-c4c[nH]c([C@@H](NC(=O)[C@@H]5C[C@H](F)CN5C(=O)OC(C)(C)C)C(C)(C)C)n4)cc3)cc2)c[nH]1)C(C)(C)C [Compound W-83],>100

row,SMILES,Fold-Synergistic 1a (Q30E) [fold]
1,CC(C)(C)OC(=O)N1[C@@H]2CC2C[C@H]1C(=O)N[C@H](c1nc(-c2ccc(-c3ccc(-c4c[nH]c([C@@H](NC(=O)[C@@H]5CC6C[C@H]6N5C(=O)OC(C)(C)C)C(C)(C)C)n4)cc3)cc2)c[nH]1)C(C)(C)C (some centres unmarked) [Compound W-67],>100
2,CC(C)(C)[C@H](NC(=O)C(F)(F)C1CCCCO1)c1nc(-c2ccc(-c3ccc(-c4c[nH]c([C@@H](NC(=O)C(F)(F)C5CCCCO5)C(C)(C)C)n4)cc3)cc2)c[nH]1 (some centres unmarked) [Compound P-166],>100
3,COC(C)(C)C(=O)N[C@H](c1nc(-c2ccc(-c3ccc(-c4c[nH]c([C@@H](NC(=O)C(C)(C)OC)C(C)C)n4)cn3)cc2)c[nH]1)C(C)C [Compound N-102],>100
4,CC(C)(C)C(=O)N[C@H](c1nc(-c2ccc(-c3cnc(-c4c[nH]c([C@@H](NC(=O)C(C)(C)C)C(C)(C)C)n4)cn3)cc2)c[nH]1)C(C)(C)C [Compound N-105],>100
5,CC(C)[C@H](NC(=O)C(=O)N1C[C@@H](C)O[C@@H](C)C1)c1nc(-c2ccc(-c3ccc(-c4c[nH]c([C@@H](NC(=O)C(=O)N5C[C@@H](C)O[C@@H](C)C5)C(C)C)n4)cc3)cc2)c[nH]1 [Compound W-54],>100
6,CC(C)(C)[C@H](NC(=O)C(C)(C)C1(O)CCCCC1)c1nc(-c2ccc(-c3ccc(-c4c[nH]c([C@@H](NC(=O)C(C)(C)C5(O)CCCCC5)C(C)(C)C)n4)cc3)cc2)c[nH]1 [Compound P-160],>100
7,O=C(C(c1ccccc1)c1ccccc1)N1CCC[C@H]1c1ncc(-c2ccc(-c3ccc(-c4cnc([C@@H]5CCCN5C(=O)C(c5ccccc5)c5ccccc5)[nH]4)cc3)cc2)[nH]1 [Compound S-146],<10
8,CC(C)(C)OC(=O)N1C[C@H](O)C[C@H]1C(=O)N[C@H](c1nc(-c2ccc(-c3ccc(-c4c[nH]c([C@@H](NC(=O)[C@@H]5C[C@@H](O)CN5C(=O)OC(C)(C)C)C(C)(C)C)n4)cc3)cc2)c[nH]1)C(C)(C)C [Compound W-96],>100
9,CC(C)(C)[C@H](NC(=O)C1CC(=O)N(c2ccccc2O)C1)c1nc(-c2ccc(-c3ccc(-c4c[nH]c([C@@H](NC(=O)C5CC(=O)N(c6ccccc6O)C5)C(C)(C)C)n4)cc3)cc2)c[nH]1 (some centres unmarked) [Compound S-265],>100
10,CC(C)(C)[C@H](NC(=O)CC1CC(F)(F)C1)c1nc(-c2ccc(-c3ccc(-c4c[nH]c([C@@H](NC(=O)CC5CC(F)(F)C5)C(C)(C)C)n4)cc3)cc2)c[nH]1 [Compound N-120],>100
11,CC(C)(OCC(F)F)C(=O)N[C@H](c1nc(-c2ccc(-c3ccc(-c4c[nH]c([C@@H](NC(=O)C(C)(C)OCC(F)F)C5(C)CC5)n4)cc3)cc2)c[nH]1)C1(C)CC1 [Compound Y-64],>100
12,CC(C)[C@H](NC(=O)[C@@H]1C[C@@H](F)CN1C(=O)OC(C)(C)C)c1nc(-c2ccc(-c3ccc(-c4c[nH]c([C@@H](NC(=O)[C@@H]5C[C@@H](F)CN5C(=O)OC(C)(C)C)C(C)C)n4)cc3)cc2)c[nH]1 [Compound W-181],>100
13,COC1CC(C(=O)N[C@H](c2nc(-c3ccc(-c4ccc(-c5c[nH]c([C@@H](NC(=O)C6CC(OC)C6)C(C)(C)C)n5)cc4)cc3)c[nH]2)C(C)(C)C)C1 (stereo partly drawn) [Compound L-54],>100
14,CC(C)(C)[C@H](NC(=O)C1(N2CCC(F)(F)CC2)COC1)c1nc(-c2ccc(-c3ccc(-c4c[nH]c([C@@H](NC(=O)C5(N6CCC(F)(F)CC6)COC5)C(C)(C)C)n4)cc3)cc2)c[nH]1 [Compound W-63],>100
15,O=C(c1ccc2ncsc2c1)N1CCC[C@H]1c1ncc(-c2ccc(-c3ccc(-c4cnc([C@@H]5CCCN5C(=O)c5ccc6ncsc6c5)[nH]4)cc3)cc2)[nH]1 [Compound S-136],<10
16,CC1(C)CC(C(=O)N[C@H](c2nc(-c3ccc(-c4ccc(-c5c[nH]c([C@@H](NC(=O)C6CCOC(C)(C)C6)C(C)(C)C)n5)cc4)cc3)c[nH]2)C(C)(C)C)CCO1 (some centres unmarked) [Compound W-122],>100
17,COC(=O)N[C@H](C(=O)N[C@H](c1nc(-c2ccc(-c3ccc(-c4c[nH]c([C@@H](NC(=O)[C@@H](NC(=O)OC)C(C)C)C5CC5)n4)cc3)cc2)c[nH]1)C1CC1)C(C)C [Compound P-3],>10
18,CC(C)(NCC(F)(F)F)C(=O)N[C@H](c1nc(-c2ccc(-c3ccc(-c4c[nH]c([C@@H](NC(=O)C(C)(C)NCC(F)(F)F)C(C)(C)C)n4)cc3)cc2)c[nH]1)C(C)(C)C [Compound L-50],>100
19,O=C(c1ccnnc1)N1CCC[C@H]1c1ncc(-c2ccc(-c3ccc(-c4cnc([C@@H]5CCCN5C(=O)c5ccnnc5)[nH]4)cc3)cc2)[nH]1 [Compound S-187],<10
